Measurements as given in patent US20220017833A1, “Methods and Compositions for Scavenging Sulfides from Hydrocarbon Fluids and Aqueous Streams” (Nexgen Oilfield Chemicals, LLC, priority 2019, published 2022).

Key:
Format in all cases: physicochemical
[1] = Solution Homogeneity Test; settings: Table 5; glyoxy alkyl diaminol in water and MeOH only
From the text: In one aspect, as two-phase reaction products are problematic, scavenger system homogeneity is desired. The two phases could be emulsified or otherwise finely dispersed, but in practice, even fine, seemingly stable dispersions eventually separate or stratify in extended storage or critical use and are not robust enough for practical use. They are not allowed, for example, to be fed through capillaries for fear of plugging them. In this pass/fail test, a sample is held up for visual inspection in a backlit clear vial. A clear, single-phase, homogeneous solution is a pass. Anything else is a fail.

Hot Spray Fouling Test = settings: Table 5; glyoxy alkyl diaminol in water and MeOH only
From the text: In many gas applications, the scavenger must by sprayed into a hot gas stream. This can create insoluble materials (“solids”) as the scavenger system evaporates and/or decomposes. These solids accumulate and foul (interfere with the function) of the vessel, line, or equipment to which the scavenger is being fed. This precludes the scavenger being used in that application. Referring now to FIG. 2, a spray test system 200 is utilized to for the Hot Spray Fouling Test. In one embodiment, an injection atomizer apparatus 22 is employed, wherein the scavenger formulation (not separately labeled) is sprayed onto a sheet 26 through an atomizing nozzle 24, like that used to introduce the scavenger into a gas line, tank, or vessel. The material is first placed in a double boiler (not shown) and brought to 180° F. The heated liquid is then placed in the injection atomizer apparatus 22 and sprayed horizontally onto an aluminum sheet 26 twelve inches away. The chemical drains gravitationally down the sheet where it is funneled into a beaker 28 for collection. If solids are observed on the sheet 26 or in the draining or collected fluid, the sample fails. If no solids are observed, it passes the test.

[2] = Storage Capacity Loss Test; settings: for BT Capacity Loss / FD Capacity Loss: 72-24 Hrs storage at room temperature; for Min to BT / Min to FD: Short Reaction Time Capacity Test, diaminol in water + 10.00 g MeOH, 20 g test
Experimental: This test compares the scavenging capacity after 24 hours of storage of the scavenger system at room temperature to that after 72 hours of storage thereof at room temperature. In one embodiment, a sample of the scavenger system is made fresh and split in two portions. The Short Reaction Time Capacity Test is run on one portion after standing 24 hours on the bench at room temperature. Then the same test is run on the other portion after standing 72 hours on the bench at room temperature. The two measured capacities are compared to see if the product degrades in storage. Importantly, some scavengers lose activity with time due to secondary reactions and re-equilibrations that degrade their active form.
Table 5 compares different alkyl substituents on glyoxy alkyl diaminols. These compounds were prepared by reacting one mole of glyoxal, as a 40% aqueous solution, with 2.1 moles of various primary amines in a sufficient amount of MeOH to keep the product from separating into an aqueous layer and a non-aqueous layer. For each amine substituent: methyl (Me), ethyl (Et), normal-propyl (n-Pr), iso-propyl (i-Pr), and iso-propanol [1-propan-2-ol] (i-PrOH), the presence or absence of alpha branching on that substituent is noted. The weight ratios of the diaminols, water, and MeOH, are listed, along with their equivalent weights (Eq. Wt.) and the total equivalents per 20 g test (Eq/test). To measure the product stability, the Storage Capacity Loss between 24 and 72 hours was determined. As described earlier, a fresh sample of the scavenger system is split in two portions. The Short Reaction Time Capacity Test is run on one portion after standing 24 hours on the bench at room temperature. Then the same test is run on the other portion after standing 72 hours on the bench at room temperature. Both the 24-hr and 72-hr capacities (Min to FD and BT) and molar capacities (Min/Eq FD and BT) are listed in the table with the percent capacity loss for each substituent calculated below it. […] The others lost 34% to 77% of their scavenging capacity in 48 hours (72-24), presumably due to secondary reactions and re-equilibrations that degraded their active form. In this system employing only methanol, all of these compositions failed both the Hot Spray Fouling Test and the Spent Water Flowability Test. Two of them, the iso-propylamine [propan-2-amine] and the iso-propanolamine [1-aminopropan-2-ol] passed the Spent Solids Fouling Test.

[3] = Spent Solids Fouling Test; settings: Table 5, glyoxy alkyl diaminol in water and MeOH only
From the text: In every application, the active component of the scavenger system reacts with H2S to from a reaction product. Once all the active scavenger has been so reacted, it is spent. […] Thioethers are much less water soluble than amines, so the reaction products are often insoluble. Thioether bridges also connect spent scavenger molecules to each other, thereby forming insoluble polymeric solids. These solids accumulate and foul (interfere with the function) of the vessel, line, or equipment to which the scavenger is being fed. […] If any solids or insoluble viscous liquids are observed poorly dispersed in the spent scavenger system or clinging to the sides of the vessel, the scavenging system employed in that Long Reaction Time Capacity Test fails this test. A homogeneous, single-phase solution or thin layer of readily flowable non-sticking liquid constitutes a pass.

[4] = Spent Water Flowability Test; design: key: Pass: A homogeneous, single-phase solution or thin layer of readily flowable non-sticking liquid constitutes a pass.; Fail: Any solids or thick, sticky insoluble liquid is a fail.; PASS: A homogeneous, single-phase solution or thin layer of readily flowable non-sticking liquid constitutes a pass.; FAIL: Any solids or thick, sticky insoluble liquid is a fail; settings: Table 5; glyoxy alkyl diaminol in water and MeOH only
Experimental: In field applications, spent scavenger is disposed of through a wastewater system. Spent scavenger might be soluble in the scavenger system but insoluble in wastewater. If it cannot be disposed of, it is not suitable for use. To ensure wastewater processing runs trouble free, spent scavenger passing the Spent Solids Fouling Test is then added to 39 times its weight in water (2.5%) and examined again for insoluble solids and viscous, sticky liquids that might foul the wastewater system. Any solids or thick, sticky insoluble liquid is a fail. A homogeneous, single-phase solution or thin layer of readily flowable non-sticking liquid constitutes a pass.

[5] = Sample Age 24 Hrs at room temperature
[6] = Sample Age 72 Hrs at room temperature

SMILES	Solution Homogeneity [1]	Hot Spray Fouling (Hot Spray Fouling Test)	BT Capacity Loss [2] [%]	FD Capacity Loss [2] [%]	Min/Eq BT ([2]; Sample Age 24 Hrs) [Min/Eq]	Min/Eq FD ([2]; Sample Age 24 Hrs) [Min/Eq]	Min to BT [2, 5] [min]	Min to FD [2, 5] [min]	Min/Eq BT ([2]; Sample Age 72 Hrs) [Min/Eq]	Min/Eq FD ([2]; Sample Age 72 Hrs) [Min/Eq]	Min to BT [2, 6] [min]	Min to FD [2, 6] [min]	Spent Solids Fouling [3]	Spent Water Flowability [4]	Spent Solids Fouling ([3]; listed as iso-propanolamine)
CCNC(O)C(O)NCC (stereo not drawn) [Et]	Pass	Fail	46	71	436	365	37	31	236	106	20	9	Fail	Fail	–
CNC(O)C(O)NC (stereo not drawn) [Me]	Pass	Fail	34	47	301	156	29	15	197	83	19	8	Fail	Fail	–
CC(O)CNC(O)C(O)NCC(C)O (stereo not drawn)	Pass	Fail	67	54	444	192	30	13	148	89	10	6	Pass	Fail	passed
CCCNC(O)C(O)NCCC (stereo not drawn) [n-Pr]	Pass	Fail	55	77	501	409	38	31	224	92	17	7	Fail	Fail	–
